Laboratory results reported in the NIST ThermoML archive (doi:10.1016/j.jct.2015.02.011).

Assay: refractive index (Na D-line) (dimensionless); xn = mol fraction of the nth substance listed
Settings: 100.7 kPa, Liquid, Standard Abbe refractometry

CCCCn1cc[n+](C)c1.F[P-](F)(F)(F)(F)F [1-butyl-3-methylimidazolium hexafluorophosphate] + C1CCOC1
refractive index
Settings	x1 = 0.0871	x1 = 0.1801	x1 = 0.2893	x1 = 0.3939	x1 = 0.4994	x1 = 0.5709	x1 = 0.7163	x1 = 0.8069	x1 = 0.9012	x1 = 1
293.15 K	1.41126	1.41369	1.41462	1.41441	1.41373	1.41332	1.41236	1.41205	1.41131	1.41068
298.15 K	1.40906	1.41157	1.41279	1.41273	1.41208	1.4117	1.41089	1.41059	1.41014	1.40943
303.15 K	1.40701	1.40957	1.41105	1.41113	1.41065	1.41025	1.40964	1.40935	1.40895	1.40818
308.15 K	1.40475	1.40747	1.40915	1.40938	1.4092	1.40877	1.40818	1.40793	1.40778	1.40693
313.15 K	1.40262	1.40554	1.40754	1.40784	1.40779	1.40748	1.40693	1.40681	1.40666	1.40567
318.15 K	1.40012	1.40345	1.40558	1.40611	1.40619	1.40595	1.40552	1.40541	1.40525	1.40443
323.15 K	1.39781	1.40139	1.40377	1.40455	1.40451	1.40452	1.40428	1.40425	1.40393	1.40312

CCCCCCn1cc[n+](C)c1.F[P-](F)(F)(F)(F)F [1-hexyl-3-methylimidazolium hexafluorophosphate] + C1CCOC1
refractive index
Settings	x1 = 0.1036	x1 = 0.2002	x1 = 0.2868	x1 = 0.4134	x1 = 0.5222	x1 = 0.6239	x1 = 0.6951	x1 = 0.7978	x1 = 0.8953	x1 = 1
293.15 K	1.416	1.41971	1.42081	1.42058	1.41962	1.41895	1.41874	1.41868	1.41858	1.41958
298.15 K	1.41392	1.41772	1.41878	1.41884	1.41828	1.41755	1.41759	1.41752	1.41756	1.41832
303.15 K	1.41184	1.41573	1.41707	1.4171	1.41694	1.41615	1.41644	1.41636	1.41654	1.41692
308.15 K	1.40966	1.41374	1.41536	1.41556	1.41536	1.41475	1.41509	1.41512	1.41552	1.41564
313.15 K	1.40748	1.41175	1.41365	1.41402	1.41378	1.41335	1.41374	1.41388	1.4145	1.41422
318.15 K	1.4053	1.40976	1.41194	1.41248	1.4122	1.41195	1.41239	1.41264	1.41348	1.41306
323.15 K	1.40312	1.40777	1.41023	1.41094	1.41062	1.41055	1.41104	1.4114	1.41246	1.41175

CCCCCCCC[n+]1ccn(C)c1.F[P-](F)(F)(F)(F)F [1-octyl-3-methylimidazolium hexafluorophosphate] + C1CCOC1
refractive index
Settings	x1 = 0.0767	x1 = 0.1791	x1 = 0.2783	x1 = 0.3996	x1 = 0.5198	x1 = 0.612	x1 = 0.6957	x1 = 0.7754	x1 = 0.8991	x1 = 1
293.15 K	1.41505	1.4205	1.42326	1.42412	1.42414	1.42411	1.42421	1.42432	1.42436	1.42441
298.15 K	1.41278	1.41848	1.42126	1.42242	1.42258	1.42272	1.42284	1.42306	1.42329	1.42312
303.15 K	1.41061	1.41646	1.41956	1.42076	1.42102	1.42123	1.42161	1.42189	1.42202	1.42171
308.15 K	1.40824	1.41452	1.41786	1.4191	1.41946	1.41974	1.42018	1.42042	1.42085	1.42029
313.15 K	1.40587	1.41284	1.41616	1.41744	1.4179	1.41825	1.41865	1.41915	1.41958	1.41888
318.15 K	1.4035	1.41116	1.41446	1.41578	1.41634	1.41676	1.41712	1.41788	1.41831	1.4175
323.15 K	1.40113	1.40948	1.41276	1.41412	1.41478	1.41527	1.41559	1.41661	1.41704	1.41601
